In PMC10041525, “New Dual Inhibitors of Bacterial Topoisomerases with Broad-Spectrum Antibacterial Activity and In Vivo Efficacy against Vancomycin-Intermediate Staphylococcus aureus” (Journal of Medicinal Chemistry, 2023):
In brackets after ≈: the same amount, converted by molar mass. Read-outs that look alike come from different tables or passages of the source.

Experiments:
[1] = test system: N. gonorrhoeae ATCC 49226; test: IHMA QC MIC; format: cell-based; settings: Neisseria gonorrhoeae, ATCC49226
Excerpt: (§1) Supplement jm2c01905_si_004.xlsx, sheet "QC" | column: MIC [µg/mL]

E. faecalis ATCC 29212 = test: IHMA QC MIC; format: cell-based
Excerpt: as §1

H. influenzae ATCC 49766 = test: IHMA QC MIC; format: cell-based
Excerpt: as §1

H. influenzae ATCC 49247 = test: IHMA QC MIC; format: cell-based; settings: Haemophilus influenzae
Excerpt: as §1

in vitro = settings: pH 7.4; for Clint (pred. in vivo) / half-life at 1 h, 1 µM: microsomes
Method: Liver microsomal fractions were purchased from XenoTech LLC, (KS, USA). […] To initiate the reaction, 1 mM NADPH was added. Samples were taken at 0, 5, 10, 20, 40, and 60 min. To terminate the reaction, cold acetonitrile with warfarin as an internal standard was added. LC–MS/MS was used to analyze the samples and determine the amount of remaining parent compound. The LC–MS/MS method was the same as described above in Chapter LogD Determination.

[2] = in vivo pharmacokinetics, IV; parameters: species or system male CD-1 mice
Method: The in vivo pharmacokinetic studies of 7a were performed by Selvita d.o.o. (Zagreb, Croatia) in male CD-1 mice (Charles River). The test compound was administered via intravenous (iv) bolus at a dose of 1 mg/kg (dose volume 5 mL/kg). Blood samples were collected from the tail vein 0.05, 0.25, 0.5, 1.0, 2.0, 4.0, 8.0, and 24 h after administration from three animals per time point. Each animal was sampled 2–4 times throughout the time course of collection (six animals were used totally per each route). Blood samples were centrifuged at 1560g for 10 min at 4 °C. The samples were analyzed by LC–MS/MS. Prior to analysis, the samples were prepared by protein precipitation {20 μL of plasma + 20 μL of water + 240 μL of extraction solvent [acetonitrile/methanol (2:1 v/v) with 100 ng/mL diclofenac (IS)]}, and the extracts were diluted with water (1:3 v/v).
For LC–MS/MS analysis, a Shimadzu prominence HPLC system was used (HPLC pump: LC30AD, autosampler: SIL30ACMP, column oven: CTO30A) connected to an Applied Biosystems mass spectrometer (QTRAP 5500) operating in the positive TurboIonSpray mode. For separation, a Waters Acquity UPLC BEH C18 1.7 μm, 2.1 × 50 mm (Waters, Milford, MA) column was used, with an injection volume of 1 or 2 μL and a flow rate of 0.5 mL/min. The mobile phase consisted of 0.1% formic acid in water (solvent A) and 0.1% formic acid in acetonitrile (solvent B). Gradient: 0–0.05 min, 5% B; 0.05–0.80 min, 5–85% B; 0.80–1.00, 85% B; 1.00–1.01, 85–95% B; 1.01–1.50, 95% B; 1.50–1.51, 95–5% B, 1.51–2.00, 5% B.
Pharmacokinetic analysis was performed using WinNonlin Phoenix software (Certara, version 8.3) from the mean animal plasma concentration per group, per time point, non-compartmental analysis, and the target dose.

A. baumannii DNA gyrase = A. baumannii DNA gyrase (Acinetobacter baumannii, UniProt A0ABX6CA01); test: gel-based supercoiling assay; format: biochemical
Method: In all experiments, the activity of the
(§2) enzymes was determined prior to the testing of the compound and 1 unit (U) was defined as the
(§3) amount of enzyme required to just fully supercoil or decatenate the substrate. This amount of
(§4) enzyme was initially used in determination of control inhibitor activity. These experiments were
(§5) performed in duplicate. […] The final DMSO
(§6) concentration was 1% for all assays. All measurements were performed in quadruplicates. The
(§7) condition for each reaction were as follows:
− S. aureus gyrase supercoiling assay
(§8) 1 U of S. aureus gyrase was incubated with 0.5 µg of relaxed pBR322 DNA in a 30 µL reaction at
(§9) magnesium acetate, 10 mM DTT, 2 mM ATP, 500 mM potassium glutamate and 0.05 mg/mL
− S. aureus topo IV decatenation assay
(§10) 1 U of S. aureus topo IV was incubated with 20 µg kDNA in a 30 µL reaction at 37 °C for 30
(§11) mM ATP, 350 mM potassium glutamate and 0.05 mg/mL albumin.
(§12) − A. baumannii gyrase supercoiling assay
(§13) 1 U of A. baumannii gyrase was incubated with 0.5 µg of relaxed pBR322 DNA in a 30 µL reaction
(§14) blue), before being loaded on a 1.0% TAE gel run at 80V for 2 hours. Bands were visualised by
(§15) ethidium bromide staining for 20 minutes and destaining for 20 minutes. Gels were scanned using
(§16) documentation equipment (GeneGenius, Syngene, Cambridge, UK) and % inhibition levels were
(§17) measured by determining the relative fluorescence of the supercoiled band using gel scanning
software. […]

S. pneumoniae (n = 12) = test: MIC broth microdilution at IHMA Europe; format: cell-based; settings: for MIC: Streptococcus pneumoniae, read-out: MIC
[3] = test system: Chinese hamster ovary K1 cells; test: in vitro micronucleus test
A. baumannii topo IV = A. baumannii topo IV (Acinetobacter baumannii, UniProt A0ABX6CMT0); test: gel-based decatenation assay
Method: In all experiments, the activity of the
as §2, §3, §4, §5, §6, §7
− S. aureus gyrase supercoiling assay
as §8, §9
− S. aureus topo IV decatenation assay
as §10, §11, §12, §13, §14, §15, §16, §17
software. […]

[4] = male, CD-1, mouse, plasma, IV 1 mg/kg

Question: With Cc1[nH]c(C(=O)Nc2nc3c(N4CCOCC4)cc(C(=O)O)cc3s2)c(Cl)c1Cl [7a, 2-(3,4-Dichloro-5-methyl-1H-pyrrole-2-carboxamido)-4-morpholinobenzo[d]thiazole-6-carboxylic Acid] as the compound, how does the MIC [1] read?
Answer: ≤ 0.03 µg/mL

Question: What about the MIC (E. faecalis ATCC 29212; Enterococcus faecalis, ATCC29212) of the same compound?
Answer: 0.06 µg/mL (≈ 0.132 µM)

Question: What about the MIC (E. faecalis ATCC 29212; QC strain E. faecalis ATCC 29212, test date 2021-11-26) of the same compound?
Answer: 0.06 µg/mL (≈ 0.132 µM)

Question: And the MIC (H. influenzae ATCC 49766; Haemophilus influenzae, ATCC49766)?
Answer: 0.25 µg/mL (≈ 0.549 µM)

Question: What about the MIC (H. influenzae ATCC 49766; QC strain H. influenzae ATCC 49766, test date 2021-11-26) of the same compound?
Answer: 0.25 µg/mL (≈ 0.549 µM)

Question: And the MIC (H. influenzae ATCC 49247; ATCC49247, QC strain H. influenzae ATCC 49247, test date 2021-11-11)?
Answer: 0.25 µg/mL (≈ 0.549 µM)

Question: And the MIC (H. influenzae ATCC 49247; ATCC49247, QC strain H. influenzae ATCC 49247, test date 2021-11-26)?
Answer: 0.06 µg/mL (≈ 0.132 µM)

Question: What about the “Clint (pred. in vivo)” value (in vitro; human) of the same compound?
Answer: 630 mL/min

Question: What about the half-life at 1 h, 1 µM (in vitro; human) of the same compound?
Answer: 103 min

Question: What about the “ClH (pred.)” value (in vitro; human) of the same compound?
Answer: 14 mL/min

Question: And the Epred (in vitro; human)?
Answer: 0.01

Question: And the “Clint (pred. in vivo)” value (in vitro; mouse)?
Answer: 1.3 mL/min

Question: What about the half-life at 1 h, 1 µM (in vitro; mouse) of the same compound?
Answer: 87 min

Question: What about the “ClH (pred.)” value (in vitro; mouse) of the same compound?
Answer: 0.03 mL/min

Question: And the Epred (in vitro; mouse)?
Answer: 0.01

Question: And the “plasma clearance as % of liver blood flow” value ([2]; assuming 90 mL/min/kg)?
Answer: 61%

Question: What about the AUC(0-inf) at 24 h [2, 4] of the same compound?
Answer: 304 ng·h/mL

Question: And the C0 at 24 h [2, 4]?
Answer: 913 ng/mL

Question: What about the clearance at 24 h [2, 4] of the same compound?
Answer: 54.8 mL/min/kg

Question: And the half-life at 24 h [2, 4]?
Answer: 60 min

Question: And the AUC(0-t) at 24 h ([2]; male, CD-1, mouse, plasma, IV 1 mg/kg, read-out: AUC0–24h)?
Answer: 303 ng·h/mL

Question: And the Vd at 24 h ([2]; male, CD-1, mouse, plasma, IV 1 mg/kg, read-out: Vss)?
Answer: 2.3 L/kg

Question: And the IC50 (A. baumannii DNA gyrase)?
Answer: 2.42 ± 0.28 nM

Question: And the “Cumulative % at MIC” value (S. pneumoniae (n = 12); MIC […])?
Answer: 25.0%

Question: What about the MIC (S. pneumoniae (n = 12); S. pneumoniae IHMA N° 1775387) of the same compound?
Answer: 0.5 µg/mL (≈ 1.1 µM)

Question: And the MIC (S. pneumoniae (n = 12); S. pneumoniae IHMA N° 1776057)?
Answer: 0.5 µg/mL (≈ 1.1 µM)

Question: What about the MIC (S. pneumoniae (n = 12); S. pneumoniae IHMA N° 1785617) of the same compound?
Answer: 0.25 µg/mL (≈ 0.549 µM)

Question: What about the MIC (S. pneumoniae (n = 12); S. pneumoniae IHMA N° 1800765) of the same compound?
Answer: 0.5 µg/mL (≈ 1.1 µM)

Question: What about the MIC (S. pneumoniae (n = 12); S. pneumoniae IHMA N° 1811259) of the same compound?
Answer: 0.06 µg/mL (≈ 0.132 µM)

Question: And the MIC (S. pneumoniae (n = 12); S. pneumoniae IHMA N° 1831562)?
Answer: 0.5 µg/mL (≈ 1.1 µM)

Question: And the MIC (S. pneumoniae (n = 12); S. pneumoniae IHMA N° 1902609)?
Answer: 0.5 µg/mL (≈ 1.1 µM)

Question: And the MIC (S. pneumoniae (n = 12); S. pneumoniae IHMA N° 1979675)?
Answer: 0.5 µg/mL (≈ 1.1 µM)

Question: What about the MIC (S. pneumoniae (n = 12); S. pneumoniae IHMA N° 1991963) of the same compound?
Answer: 0.5 µg/mL (≈ 1.1 µM)

Question: What about the MIC (S. pneumoniae (n = 12); S. pneumoniae IHMA N° 2057487) of the same compound?
Answer: 0.5 µg/mL (≈ 1.1 µM)

Question: What about the MIC (S. pneumoniae (n = 12); S. pneumoniae IHMA N° 2073087) of the same compound?
Answer: 0.5 µg/mL (≈ 1.1 µM)

Question: And the MIC (S. pneumoniae (n = 12); S. pneumoniae IHMA N° 2117109)?
Answer: 0.12 µg/mL (≈ 0.264 µM)

Question: And the “MIC, all isolates” value (S. pneumoniae (n = 12); n = 12)?
Answer: ≤ 0.5 µg/mL

Question: And the “% Micronuclei” value ([3]; with S9, 25 µM)?
Answer: 2.7%

Question: What about the No. binucleate cells ([3]; with S9, 25 µM) of the same compound?
Answer: 1707

Question: What about the “% Cytostasis” value ([3]; with S9, 50 µM) of the same compound?
Answer: 1.4%

Question: What about the “% Micronuclei” value ([3]; with S9, 50 µM) of the same compound?
Answer: 4.5%

Question: And the No. binucleate cells ([3]; with S9, 50 µM)?
Answer: 1296

Question: And the “% Cytostasis” value ([3]; with S9, 100 µM)?
Answer: tox

Question: And the “genotoxic concentration (no genotoxicity up to)” value ([3]; with S9 activation)?
Answer: > 50 µM

Question: What about the “% Micronuclei” value ([3]; without S9, 6.25 µM) of the same compound?
Answer: 2.8%

Question: And the No. binucleate cells ([3]; without S9, 6.25 µM)?
Answer: 3160

Question: And the “% Micronuclei” value ([3]; without S9, 25 µM)?
Answer: 2.5%

Question: And the No. binucleate cells ([3]; without S9, 25 µM)?
Answer: 2644

Question: What about the “% Cytostasis” value ([3]; without S9, 50 µM) of the same compound?
Answer: 0.1%

Question: And the “% Micronuclei” value ([3]; without S9, 50 µM)?
Answer: 4.4%

Question: And the No. binucleate cells ([3]; without S9, 50 µM)?
Answer: 1687

Question: And the “% Cytostasis” value ([3]; without S9, 100 µM)?
Answer: 40.8%

Question: And the “% Micronuclei” value ([3]; without S9, 100 µM)?
Answer: 7%

Question: And the No. binucleate cells ([3]; without S9, 100 µM)?
Answer: 642

Question: And the “% Micronuclei” value ([3]; without S9, […])?
Answer: 2.7%

Question: And the “genotoxic concentration (no genotoxicity up to)” value ([3]; without metabolic activation)?
Answer: > 100 µM

Question: And the IC50 (A. baumannii topo IV)?
Answer: 120 ± 8.34 nM
